The record followed here is the OligoGym collection.

HELM strings list units from the 5' end as sugar, base in round brackets, then linkage (d deoxyribose, r ribose, m 2'-O-methyl, p phosphodiester). Strings are as the collection lists them; they lack the last nucleoside at the 3' end of the tested compound. [moe] = 2'-O-(2-methoxyethyl) (MOE); [sp] = phosphorothioate linkage; [m5C] = 5-methylcytosine

The data set has as its target APP. The data set can be described thus: mouse, dose not given. The conditions noted are these: ASO.

As to “RNA1{[moe](A)[sp].[moe](G)p.[moe]([m5C])p.[moe](A)p.[moe](T)[sp].d([m5C])[sp].d(T)[sp].d(T)[sp].d(T)[sp].d(T)[sp].d(A)[sp].d([m5C])[sp].d(T)[sp].d(A)[sp].d(T)[sp].[moe]([m5C])p.[moe](T)p.[moe](G)[sp].[moe]([m5C])}$$$$ (last 3' nucleoside missing)”, the 3 h FOB score was found to be 0.67 score 0-7.
In the case of “RNA1{[moe](A)[sp].[moe](G)p.[moe]([m5C])p.[moe](T)p.[moe](T)[sp].d(A)[sp].d([m5C])[sp].d(A)[sp].d(T)[sp].d([m5C])[sp].d(A)[sp].d(T)[sp].d(T)[sp].d(T)[sp].d(T)[sp].[moe]([m5C])p.[moe](T)p.[moe](T)[sp].[moe](G)}$$$$ (last 3' nucleoside missing)” it was 1 score 0-7.
In the case of “RNA1{[moe](A)[sp].[moe](T)p.[moe](A)p.[moe](T)p.[moe](T)p.[moe](T)p.d(G)[sp].d(T)[sp].d([m5C])[sp].d(A)[sp].d(A)[sp].d([m5C])[sp].d([m5C])[sp].d([m5C])[sp].d(A)[sp].d(G)[sp].[moe](A)p.[moe](A)[sp].[moe]([m5C])}$$$$ (last 3' nucleoside missing)” it was 1 score 0-7.
On to “RNA1{[moe](A)[sp].[moe](T)p.[moe](G)p.[moe](G)p.[moe](A)[sp].d(T)[sp].d([m5C])[sp].d(T)[sp].d(G)[sp].d(A)[sp].d(A)[sp].d(T)[sp].d([m5C])[sp].d([m5C])[sp].d([m5C])[sp].[moe](A)p.[moe]([m5C])p.[moe](T)[sp].[moe](T)}$$$$ (last 3' nucleoside missing)”, for which the 3 h FOB score stood at 1 score 0-7.
The same measure for “RNA1{[moe](A)[sp].[moe](T)p.[moe](G)p.[moe](T)p.[moe](G)[sp].d(A)[sp].d(T)[sp].d(T)[sp].d(T)[sp].d([m5C])[sp].d(A)[sp].d([m5C])[sp].d(T)[sp].d(A)[sp].d(A)[sp].[moe]([m5C])p.[moe]([m5C])p.[moe](G)[sp].[moe](G)}$$$$ (last 3' nucleoside missing)”: 0 score 0-7.
In the case of “RNA1{[moe](A)[sp].[moe](T)p.[moe](G)p.[moe](T)p.[moe](G)p.[moe](A)[sp].d(T)[sp].d(T)[sp].d(T)[sp].d([m5C])[sp].d(A)[sp].d([m5C])[sp].d(T)[sp].d(A)[sp].d(A)[sp].d([m5C])[sp].[moe]([m5C])p.[moe](G)[sp].[moe](G)}$$$$ (last 3' nucleoside missing)” it was 0 score 0-7; in that of “RNA1{[moe](A)[sp].[moe](T)p.[moe](G)p.[moe](T)p.[moe](T)[sp].d([m5C])[sp].d(A)[sp].d(T)[sp].d(T)[sp].d([m5C])[sp].d(T)[sp].d([m5C])[sp].d(A)[sp].d(T)[sp].d([m5C])[sp].[moe]([m5C])p.[moe]([m5C])p.[moe]([m5C])[sp].[moe](A)}$$$$ (last 3' nucleoside missing)”, 1 score 0-7; in that of “RNA1{[moe](A)[sp].[moe](T)p.[moe](G)p.[moe]([m5C])p.[moe](A)[sp].d(T)[sp].d([m5C])[sp].d(A)[sp].d(A)[sp].d(T)[sp].d(T)[sp].d([m5C])[sp].d([m5C])[sp].d(T)[sp].d(T)[sp].[moe](T)p.[moe](G)p.[moe](G)[sp].[moe](G)}$$$$ (last 3' nucleoside missing)”, 0 score 0-7.
In the case of “RNA1{[moe](A)[sp].[moe](T)p.[moe](T)p.[moe]([m5C])p.[moe](T)[sp].d(G)[sp].d(G)[sp].d(A)[sp].d([m5C])[sp].d(A)[sp].d(T)[sp].d(T)[sp].d([m5C])[sp].d(A)[sp].d(T)[sp].[moe](G)p.[moe](T)p.[moe](G)[sp].[moe]([m5C])}$$$$ (last 3' nucleoside missing)”, the 3 h FOB score came out at 1 score 0-7.
In the case of “RNA1{[moe](A)[sp].[moe](T)p.[moe](T)p.[moe]([m5C])p.[moe](T)[sp].d([m5C])[sp].d(T)[sp].d(T)[sp].d(A)[sp].d(T)[sp].d(A)[sp].d(T)[sp].d(T)[sp].d([m5C])[sp].d([m5C])[sp].[moe](T)p.[moe](T)p.[moe](A)[sp].[moe]([m5C])}$$$$ (last 3' nucleoside missing)” it was 0.5 score 0-7.
